According to doi:10.1101/2023.12.04.569845, “Identification of 4-(6-((2-methoxyphenyl)amino)pyrazin-2-yl)benzoic acids as CSNK2A inhibitors with antiviral activity and improved selectivity over PIM3” (bioRxiv, 2023):
Where two headings read alike, the source gives them in different places. Values belong to the compound of their own block, whether it stands above or below them.

Experiments:
Experiment in all cases: biochemical
Design in all cases: Thermal shift (DSF, SYPRO Orange) Tm shift of recombinant kinase domains at 10 uM compound
TAF1 = TAF1 (Homo sapiens, UniProt P21675)
Sequence of TAF1 (P21675 whole entry): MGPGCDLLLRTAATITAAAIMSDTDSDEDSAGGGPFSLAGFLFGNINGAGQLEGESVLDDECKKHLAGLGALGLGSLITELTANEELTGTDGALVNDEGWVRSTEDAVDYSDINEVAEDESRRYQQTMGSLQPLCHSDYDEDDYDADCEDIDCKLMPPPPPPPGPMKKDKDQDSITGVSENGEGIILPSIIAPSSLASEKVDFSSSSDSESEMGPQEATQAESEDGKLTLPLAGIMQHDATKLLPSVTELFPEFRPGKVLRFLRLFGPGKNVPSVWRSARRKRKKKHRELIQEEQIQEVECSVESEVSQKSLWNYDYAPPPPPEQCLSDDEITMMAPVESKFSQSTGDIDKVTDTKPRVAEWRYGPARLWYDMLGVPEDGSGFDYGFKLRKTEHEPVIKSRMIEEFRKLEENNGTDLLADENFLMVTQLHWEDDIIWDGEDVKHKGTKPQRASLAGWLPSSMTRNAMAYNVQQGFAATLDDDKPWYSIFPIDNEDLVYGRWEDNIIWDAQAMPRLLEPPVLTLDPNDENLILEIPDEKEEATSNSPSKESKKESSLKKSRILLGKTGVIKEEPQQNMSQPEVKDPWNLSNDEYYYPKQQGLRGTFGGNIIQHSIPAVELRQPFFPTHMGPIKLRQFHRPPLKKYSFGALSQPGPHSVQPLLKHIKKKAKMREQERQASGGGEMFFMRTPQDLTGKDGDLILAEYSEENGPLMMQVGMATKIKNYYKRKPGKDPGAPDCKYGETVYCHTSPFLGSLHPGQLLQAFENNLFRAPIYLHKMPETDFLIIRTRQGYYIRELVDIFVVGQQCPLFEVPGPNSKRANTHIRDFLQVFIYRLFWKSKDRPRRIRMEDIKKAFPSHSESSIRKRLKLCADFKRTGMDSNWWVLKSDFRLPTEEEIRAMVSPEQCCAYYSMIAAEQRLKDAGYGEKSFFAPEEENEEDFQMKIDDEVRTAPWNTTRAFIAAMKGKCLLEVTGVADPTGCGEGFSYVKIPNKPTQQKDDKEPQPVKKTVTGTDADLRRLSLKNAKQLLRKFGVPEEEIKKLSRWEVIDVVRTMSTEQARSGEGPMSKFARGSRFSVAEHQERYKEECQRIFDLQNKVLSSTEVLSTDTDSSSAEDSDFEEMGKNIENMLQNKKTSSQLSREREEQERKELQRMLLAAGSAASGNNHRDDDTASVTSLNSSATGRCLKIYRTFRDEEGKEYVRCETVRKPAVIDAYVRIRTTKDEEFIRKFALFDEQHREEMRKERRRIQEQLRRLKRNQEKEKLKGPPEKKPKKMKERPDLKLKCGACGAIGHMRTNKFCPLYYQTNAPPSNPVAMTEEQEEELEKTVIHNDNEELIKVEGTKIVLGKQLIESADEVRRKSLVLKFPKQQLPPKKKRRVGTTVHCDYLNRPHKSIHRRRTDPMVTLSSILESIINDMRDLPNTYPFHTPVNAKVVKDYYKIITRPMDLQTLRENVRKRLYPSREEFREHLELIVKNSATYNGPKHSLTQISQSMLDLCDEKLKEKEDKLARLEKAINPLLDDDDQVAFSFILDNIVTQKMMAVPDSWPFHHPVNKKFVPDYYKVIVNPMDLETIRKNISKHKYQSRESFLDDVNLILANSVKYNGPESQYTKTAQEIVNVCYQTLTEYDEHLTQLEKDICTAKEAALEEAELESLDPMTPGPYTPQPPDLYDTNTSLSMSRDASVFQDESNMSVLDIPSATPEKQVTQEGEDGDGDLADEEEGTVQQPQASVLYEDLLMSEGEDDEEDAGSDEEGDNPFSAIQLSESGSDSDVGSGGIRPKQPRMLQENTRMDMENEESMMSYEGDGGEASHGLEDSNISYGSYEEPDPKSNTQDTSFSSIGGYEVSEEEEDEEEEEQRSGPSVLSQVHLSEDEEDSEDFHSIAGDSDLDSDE

MRCKa = molecular target: T1, MRCKa (Homo sapiens, UniProt Q5VT25)
T1 construct: gene CDC42BPA
T1 sequence (Q5VT25 whole entry): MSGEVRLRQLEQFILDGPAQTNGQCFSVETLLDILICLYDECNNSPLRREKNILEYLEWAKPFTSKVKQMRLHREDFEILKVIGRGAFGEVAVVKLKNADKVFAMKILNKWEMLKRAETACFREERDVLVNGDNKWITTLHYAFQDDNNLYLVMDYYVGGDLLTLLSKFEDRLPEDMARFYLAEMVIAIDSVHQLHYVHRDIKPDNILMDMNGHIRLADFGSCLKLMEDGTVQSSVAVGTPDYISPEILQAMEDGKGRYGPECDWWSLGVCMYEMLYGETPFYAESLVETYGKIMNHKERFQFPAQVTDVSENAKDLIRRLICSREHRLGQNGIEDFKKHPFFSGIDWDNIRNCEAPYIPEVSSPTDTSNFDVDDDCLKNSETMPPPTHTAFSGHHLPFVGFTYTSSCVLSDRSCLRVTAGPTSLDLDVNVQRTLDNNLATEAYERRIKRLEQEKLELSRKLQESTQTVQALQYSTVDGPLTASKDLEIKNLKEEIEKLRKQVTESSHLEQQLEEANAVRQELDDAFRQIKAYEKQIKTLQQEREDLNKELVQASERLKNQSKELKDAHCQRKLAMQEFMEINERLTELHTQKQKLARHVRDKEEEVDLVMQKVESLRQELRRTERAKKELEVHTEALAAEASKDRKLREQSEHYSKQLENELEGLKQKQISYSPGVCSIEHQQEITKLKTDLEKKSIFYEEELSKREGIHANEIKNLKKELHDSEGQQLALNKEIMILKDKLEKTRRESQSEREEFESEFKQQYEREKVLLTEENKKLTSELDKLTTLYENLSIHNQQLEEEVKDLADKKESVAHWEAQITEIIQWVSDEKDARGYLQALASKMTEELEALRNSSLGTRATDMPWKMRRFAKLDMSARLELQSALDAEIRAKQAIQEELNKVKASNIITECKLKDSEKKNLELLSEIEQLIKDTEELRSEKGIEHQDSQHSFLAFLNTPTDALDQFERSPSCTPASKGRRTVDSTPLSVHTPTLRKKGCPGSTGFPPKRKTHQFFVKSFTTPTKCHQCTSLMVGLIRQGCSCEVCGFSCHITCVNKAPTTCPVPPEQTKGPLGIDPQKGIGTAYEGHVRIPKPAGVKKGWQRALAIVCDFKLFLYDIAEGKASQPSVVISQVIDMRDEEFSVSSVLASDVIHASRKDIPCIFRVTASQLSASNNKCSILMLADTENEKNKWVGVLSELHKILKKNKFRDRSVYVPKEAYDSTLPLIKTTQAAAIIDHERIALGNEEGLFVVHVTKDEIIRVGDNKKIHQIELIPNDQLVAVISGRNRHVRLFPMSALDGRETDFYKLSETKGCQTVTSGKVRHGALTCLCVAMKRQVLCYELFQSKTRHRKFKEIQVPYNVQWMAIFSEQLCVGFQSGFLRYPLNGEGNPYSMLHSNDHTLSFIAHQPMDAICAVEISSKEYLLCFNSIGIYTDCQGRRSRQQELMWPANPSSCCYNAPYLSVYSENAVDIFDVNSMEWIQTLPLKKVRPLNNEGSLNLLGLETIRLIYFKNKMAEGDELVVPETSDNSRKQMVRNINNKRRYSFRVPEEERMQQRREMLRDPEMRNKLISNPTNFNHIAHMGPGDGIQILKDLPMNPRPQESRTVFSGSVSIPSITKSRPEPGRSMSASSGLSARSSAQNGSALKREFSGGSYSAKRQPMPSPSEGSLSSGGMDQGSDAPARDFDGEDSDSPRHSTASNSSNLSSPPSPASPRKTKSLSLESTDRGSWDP

EPHB3 = molecular target: T2, EPHB3 (Homo sapiens, UniProt P54753)
T2 sequence (P54753 1-998): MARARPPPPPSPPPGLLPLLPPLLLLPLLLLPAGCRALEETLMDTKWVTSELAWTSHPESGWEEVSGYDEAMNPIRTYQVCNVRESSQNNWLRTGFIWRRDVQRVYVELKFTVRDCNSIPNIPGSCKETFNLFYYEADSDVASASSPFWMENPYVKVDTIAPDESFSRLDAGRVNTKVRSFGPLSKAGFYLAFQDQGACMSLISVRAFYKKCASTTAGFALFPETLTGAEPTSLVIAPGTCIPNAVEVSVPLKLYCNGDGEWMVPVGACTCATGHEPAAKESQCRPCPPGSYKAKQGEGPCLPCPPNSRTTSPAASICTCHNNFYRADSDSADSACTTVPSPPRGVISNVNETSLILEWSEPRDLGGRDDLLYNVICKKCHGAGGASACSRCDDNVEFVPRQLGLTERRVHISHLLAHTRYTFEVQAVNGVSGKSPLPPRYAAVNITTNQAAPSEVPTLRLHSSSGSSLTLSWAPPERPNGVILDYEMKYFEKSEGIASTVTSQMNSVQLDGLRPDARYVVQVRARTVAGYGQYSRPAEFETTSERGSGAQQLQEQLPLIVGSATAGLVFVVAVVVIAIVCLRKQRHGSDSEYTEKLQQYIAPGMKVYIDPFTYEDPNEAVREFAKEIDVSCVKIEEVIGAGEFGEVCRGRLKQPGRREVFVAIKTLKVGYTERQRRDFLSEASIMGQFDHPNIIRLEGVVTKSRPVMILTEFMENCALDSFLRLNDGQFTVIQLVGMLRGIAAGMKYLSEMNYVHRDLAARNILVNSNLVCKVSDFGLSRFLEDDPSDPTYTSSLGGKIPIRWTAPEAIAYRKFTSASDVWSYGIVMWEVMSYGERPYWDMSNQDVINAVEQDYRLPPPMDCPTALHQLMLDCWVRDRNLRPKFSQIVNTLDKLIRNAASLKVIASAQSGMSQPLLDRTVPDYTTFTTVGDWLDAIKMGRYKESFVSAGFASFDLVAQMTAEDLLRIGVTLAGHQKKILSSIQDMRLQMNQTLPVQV

FECH = molecular target: T3, FECH (Homo sapiens, UniProt P22830)
T3 sequence (P22830 1-423): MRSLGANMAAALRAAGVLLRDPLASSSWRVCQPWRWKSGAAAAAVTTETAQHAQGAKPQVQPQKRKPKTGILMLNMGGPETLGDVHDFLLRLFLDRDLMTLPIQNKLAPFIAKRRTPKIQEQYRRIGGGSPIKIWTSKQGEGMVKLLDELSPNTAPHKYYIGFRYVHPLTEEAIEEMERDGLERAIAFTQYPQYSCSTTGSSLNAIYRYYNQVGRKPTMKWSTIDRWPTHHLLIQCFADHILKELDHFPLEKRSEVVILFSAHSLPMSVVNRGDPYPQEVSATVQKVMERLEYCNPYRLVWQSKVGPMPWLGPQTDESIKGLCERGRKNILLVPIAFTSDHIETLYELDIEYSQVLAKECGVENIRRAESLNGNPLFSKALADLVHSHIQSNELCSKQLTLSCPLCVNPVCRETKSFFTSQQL

MER = molecular target: T4, MER (Homo sapiens, UniProt Q12866)
T4 construct: gene MERTK
T4 sequence (Q12866 1-999): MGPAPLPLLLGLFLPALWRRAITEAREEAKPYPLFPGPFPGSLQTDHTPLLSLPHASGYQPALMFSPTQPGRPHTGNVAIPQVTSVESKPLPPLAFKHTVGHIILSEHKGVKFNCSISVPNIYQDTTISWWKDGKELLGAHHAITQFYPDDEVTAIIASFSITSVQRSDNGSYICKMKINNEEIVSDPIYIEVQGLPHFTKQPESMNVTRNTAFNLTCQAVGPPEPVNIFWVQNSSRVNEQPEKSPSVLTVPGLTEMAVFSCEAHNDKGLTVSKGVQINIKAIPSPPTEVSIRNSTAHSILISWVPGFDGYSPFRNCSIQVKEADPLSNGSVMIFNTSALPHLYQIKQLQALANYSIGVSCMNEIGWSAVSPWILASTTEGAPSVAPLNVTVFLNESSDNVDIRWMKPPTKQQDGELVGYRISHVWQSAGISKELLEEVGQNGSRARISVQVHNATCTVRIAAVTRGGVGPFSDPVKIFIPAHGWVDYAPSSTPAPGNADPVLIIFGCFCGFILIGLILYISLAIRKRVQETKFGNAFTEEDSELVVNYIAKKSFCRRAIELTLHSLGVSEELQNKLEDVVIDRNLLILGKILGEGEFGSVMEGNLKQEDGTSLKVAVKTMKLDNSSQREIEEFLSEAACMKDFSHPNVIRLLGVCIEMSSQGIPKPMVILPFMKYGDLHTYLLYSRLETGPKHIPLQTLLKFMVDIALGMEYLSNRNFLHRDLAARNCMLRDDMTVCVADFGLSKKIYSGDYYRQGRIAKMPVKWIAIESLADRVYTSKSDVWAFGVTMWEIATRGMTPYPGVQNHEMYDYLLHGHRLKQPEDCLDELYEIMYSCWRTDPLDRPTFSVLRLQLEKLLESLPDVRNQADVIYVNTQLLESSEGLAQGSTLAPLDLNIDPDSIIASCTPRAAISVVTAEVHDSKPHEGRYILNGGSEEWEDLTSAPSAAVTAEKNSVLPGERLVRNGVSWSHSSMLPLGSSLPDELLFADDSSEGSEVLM

- ΔTm at 10 µM (TAF1; read-out: 6c): 1 °C
- ΔTm at 10 µM (MRCKa; read-out: 6c): -1 °C
- ΔTm at 10 µM (EPHB3; read-out: 6c): 1 °C
- ΔTm at 10 µM (FECH; read-out: 6c): -3 °C
- ΔTm at 10 µM (MER; read-out: 6c): 3 °C
Compound: CC(C)Oc1ccc2ccn(-c3cncc(-c4ccc(C(=O)O)cc4)n3)c2c1 [6c]

- ΔTm at 10 µM (TAF1; read-out: 7c): 1 °C
- ΔTm at 10 µM (MRCKa; read-out: 7c): 0 °C
- ΔTm at 10 µM (EPHB3; read-out: 7c): -1 °C
- ΔTm at 10 µM (FECH; read-out: 7c): 0 °C
- ΔTm at 10 µM (MER; read-out: 7c): 3 °C
Compound: COc1ccc(OC(C)C)cc1Nc1cncc(-c2ccc(C(=O)O)cc2)n1 [7c]

- ΔTm at 10 µM (TAF1; read-out: 2): 0 °C
- ΔTm at 10 µM (MRCKa; read-out: 2): 0 °C
- ΔTm at 10 µM (EPHB3; read-out: 2): 0 °C
- ΔTm at 10 µM (FECH; read-out: 2): 0 °C
- ΔTm at 10 µM (MER; read-out: 2): 3 °C
Compound: CC(C)Nc1ccc2cnn(-c3cncc(-c4ccc(C(=O)O)cc4)n3)c2c1 [compound 2, 2]
